Measured values from patent US5708174A, “Heterocyclic-esters or -amides used as 5-HT4 receptor antagonists” (SmithKline Beecham p.l.c., priority 1992, dated 1998).
Counter-ions that a name gives are not always drawn.

Tested on: 5-HT4 receptor
Experiment: Guinea pig colon 5-HT4 receptor antagonist activity (longitudinal muscle-myenteric plexus, 5-HT-evoked contraction)
Assay type: cell-based
Conditions: guinea-pig distal colon longitudinal muscle-myenteric plexus; contraction evoked by 5-HT
Experimental: 5-HT4 RECEPTOR ANTAGONIST ACTIVITY
Male guinea-pigs, weighing 250-400 g are used. Longitudinal muscle-myenteric plexus preparations, approximately 3 cm long, are obtained from the distal colon region. These are suspended under a 0.5 g load in isolated tissue baths containing Krebs solution bubbled with 5% CO2 in O2 and maintained at 37° C. In all experiments, the Krebs solution also contains methiothepin 10^-7 M and granisetron 10^-6 M to block effects at 5-HT1, 5-HT2 and 5-HT3 receptors.
After construction of a simple concentration-response curve with 5-HT, using 30s contact times and a 15 min dosing cycle, a concentration of 5-HT is selected so as to obtain a contraction of the muscle approximately 40-70% maximum(10^-9 M approx). The tissue is then alternately dosed every 15 min with this concentration of 5-HT and then with an approximately equi-effective concentration of the nicotine receptor stimulant, dimethylphenylpiperazinium (DMPP). After obtaining consistent responses to both 5-HT and DMPP, increasing concentrations of a putative 5-HT4 receptor antagonist are then added to the bathing solution. The effects of this compound are then determined as a percentage reduction of the contractions evoked by 5-HT or by DMPP. […] A compound which reduces the response to 5-HT but not to DMPP is believed to act as a 5-HT4 receptor antagonist.

`CCCCN1CCC(COC(=O)c2cccc3cccnc23)CC1` [Example 1-2, (1-Butyl-4-piperidinylmethyl)quinolinyl-8-carboxylate hydrochloride] was tested, and the “5-HT4 receptor antagonist activity (in words)” value was “particularly good activity”.
